# Results published in patent US20130274338A1, “PHARMACEUTICAL COMPOSITIONS COMPRISING DGLA, 15-OHEPA, AND/OR 15-HETRE AND METHODS OF REDUCING SEBUM PRODUCTION USING SAME” (priority 2012, published 2013).
# System: P. acnes
# Experiment: Agar dilution method, growth of P. acnes and MIC, combinations with a fatty acid spike
# Assay type: cell-based, Propionibacterium acnes
# Design: key to Growth Index Plate 1 / Growth Index Plate 2 / Growth Index Plate 3 / Growth Index Avg: +++: confluent growth (comparable to control); ++: less confluent growth; +: marked reduction in growth to multiple tiny, single colonies; −: no growth present
# Method: Several compounds including fatty acids such as DGLA, 15-OHEPA, and 15-HETrE were tested to determine their capacity to inhibit the growth of P. acnes. In an exemplary method, an agar dilution method was used to determine the minimum inhibitory concentration (MIC) of each tested compound. Briefly, the agar dilution method involved preparing a series of concentrations of each compound (e.g., nicotinamide, benzoyl peroxide, adapalene, metronidazole, DGLA, 15-OHEPA, and 15-HETrE) in a Reinforced Clostridial Agar (RCA) media that facilitates growth of P. acnes under anaerobic conditions. An inoculum of P. acnes was prepared by incubation of P. acnes for approximately seven days at 35-37° C. to achieve a ≧1.0 OD600 inoculum of P. acnes in RCM broth. A portion of this inoculum was then added to the surface of each plate as a 10 μL spot and incubated at 35-37° C. for 72 hours or more. Growth of P. acnes was then observed and compared to control plates in which no compound has been added, and positive inhibition plates prepared with erythromycin. […] The growth of P. acnes in the presence of nicotinamide, benzoyl peroxide, adapalene, metronidazole, DGLA, 15-OHEPA, and 15-HETrE was determined with varying concentrations of the compound (see, Table 2). Next, the MIC was determined as the concentration at which a marked reduction (+) occurs in the appearance of growth on the test plate (as per Clinical and Laboratory Standards Institute M11-A7).
# The compounds tested singly in Example 1 were tested in combination with one another to determine the capacity of the combination to inhibit the growth of P. acnes. In an exemplary method, the MIC was determined for each of the combination as described in Example 1. Briefly, test combinations included DGLA with nicotinamide, benzoyl peroxide, adapalene, or metronidazole; 15-HETrE with nicotinamide, benzoyl peroxide, adapalene, or metronidazole; and 15-OHEPA with nicotinamide, benzoyl peroxide, adapalene, or metronidazole. The tables below show the growth of P. acnes in the presence of 0.4 or 1.0 mg/mL DGLA with varying concentrations of nicotinamide, benzoyl peroxide, adapalene, or metronidazole (Table 3); the growth of P. acnes in the presence of 0.01 or 0.05 mg/mL 15-HETrE with varying concentrations of nicotinamide, benzoyl peroxide, adapalene, or metronidazole (Table 5); and the growth of P. acnes in the presence of 0.5 or 0.1 mg/mL 15-OHEPA with varying concentrations of nicotinamide, benzoyl peroxide, adapalene, or metronidazole (Table 7).
# [1] = compound at 0.2 mg/mL + 0.01 mg/mL 15-HETrE
# [2] = compound at 0.2 mg/mL + 0.05 mg/mL 15-HETrE
# [3] = compound at 0.2 mg/mL + 0.05 mg/mL 15-OHEPA
# [4] = compound at 0.2 mg/mL + 0.1 mg/mL 15-OHEPA
# [5] = compound at 0.2 mg/mL + 0.4 mg/mL dGLA
# [6] = compound at 0.2 mg/mL + 1.0 mg/mL dGLA
# [7] = compound at 0.4 mg/mL + 0.01 mg/mL 15-HETrE
# [8] = compound at 0.4 mg/mL + 0.05 mg/mL 15-HETrE
# [9] = compound at 0.4 mg/mL + 0.05 mg/mL 15-OHEPA
# [10] = compound at 0.4 mg/mL + 0.1 mg/mL 15-OHEPA
# [11] = compound at 0.4 mg/mL + 0.4 mg/mL dGLA
# [12] = compound at 0.4 mg/mL + 1.0 mg/mL dGLA
# [13] = compound at 0.6 mg/mL + 0.01 mg/mL 15-HETrE
# [14] = compound at 0.6 mg/mL + 0.05 mg/mL 15-HETrE
# [15] = compound at 0.6 mg/mL + 0.05 mg/mL 15-OHEPA
# [16] = compound at 0.6 mg/mL + 0.1 mg/mL 15-OHEPA
# [17] = compound at 0.6 mg/mL + 0.4 mg/mL dGLA
# [18] = compound at 0.6 mg/mL + 1.0 mg/mL dGLA
# [19] = compound at 0.7 mg/mL + 0.01 mg/mL 15-HETrE
# [20] = compound at 0.7 mg/mL + 0.05 mg/mL 15-HETrE
# [21] = compound at 0.7 mg/mL + 0.05 mg/mL 15-OHEPA
# [22] = compound at 0.7 mg/mL + 0.1 mg/mL 15-OHEPA
# [23] = compound at 0.8 mg/mL + 0.01 mg/mL 15-HETrE
# [24] = compound at 0.8 mg/mL + 0.05 mg/mL 15-HETrE
# [25] = compound at 0.8 mg/mL + 0.05 mg/mL 15-OHEPA
# [26] = compound at 0.8 mg/mL + 0.1 mg/mL 15-OHEPA
# [27] = compound at 0.8 mg/mL + 0.4 mg/mL dGLA
# [28] = compound at 0.8 mg/mL + 1.0 mg/mL dGLA
# [29] = compound at 1.0 mg/mL + 0.4 mg/mL dGLA
# [30] = compound at 1.0 mg/mL + 1.0 mg/mL dGLA
compound,measurement,setting,value
"COc1ccc(-c2ccc3cc(C(=O)O)ccc3c2)cc1C12CC3CC(CC(C3)C1)C2 [Adapalene, 6-[3-(1-adamantyl)-4-methoxyphenyl]-2-naphthoic acid]",Growth Index Avg,[1],+++
same,Growth Index Plate 1,[1],+++
same,Growth Index Plate 2,[1],+++
same,Growth Index Plate 3,[1],+++
same,Growth Index Avg,[2],−
same,Growth Index Plate 1,[2],−
same,Growth Index Plate 2,[2],−
same,Growth Index Plate 3,[2],−
same,Growth Index Avg,[3],+++
same,Growth Index Plate 1,[3],+++
same,Growth Index Plate 2,[3],+++
same,Growth Index Plate 3,[3],+++
same,Growth Index Avg,[4],−
same,Growth Index Plate 1,[4],−
same,Growth Index Plate 2,[4],−
same,Growth Index Plate 3,[4],−
same,Growth Index Avg,[5],+++
same,Growth Index Plate 1,[5],+++
same,Growth Index Plate 2,[5],+++
same,Growth Index Plate 3,[5],+++
same,Growth Index Avg,[6],+++
same,Growth Index Plate 1,[6],+++
same,Growth Index Plate 2,[6],+++
same,Growth Index Plate 3,[6],+++
same,Growth Index Avg,[7],+++
same,Growth Index Plate 1,[7],+++
same,Growth Index Plate 2,[7],+++
same,Growth Index Plate 3,[7],+++
same,Growth Index Avg,[8],−
same,Growth Index Plate 1,[8],−
same,Growth Index Plate 2,[8],−
same,Growth Index Plate 3,[8],−
same,Growth Index Avg,[9],+++
same,Growth Index Plate 1,[9],+++
same,Growth Index Plate 2,[9],+++
same,Growth Index Plate 3,[9],+++
same,Growth Index Avg,[10],−
same,Growth Index Plate 1,[10],−
same,Growth Index Plate 2,[10],−
same,Growth Index Plate 3,[10],−
same,Growth Index Avg,[11],+++
same,Growth Index Plate 1,[11],+++
same,Growth Index Plate 2,[11],+++
same,Growth Index Plate 3,[11],+++
same,Growth Index Avg,[12],+++
same,Growth Index Plate 1,[12],+++
same,Growth Index Plate 2,[12],+++
same,Growth Index Plate 3,[12],+++
same,Growth Index Avg,[13],++
same,Growth Index Plate 1,[13],++
same,Growth Index Plate 2,[13],++
same,Growth Index Plate 3,[13],++
same,Growth Index Avg,[14],−
same,Growth Index Plate 1,[14],−
same,Growth Index Plate 2,[14],−
same,Growth Index Plate 3,[14],−
same,Growth Index Avg,[15],+++
same,Growth Index Plate 1,[15],++
same,Growth Index Plate 2,[15],+++
same,Growth Index Plate 3,[15],+++
same,Growth Index Avg,[16],−
same,Growth Index Plate 1,[16],−
same,Growth Index Plate 2,[16],−
same,Growth Index Plate 3,[16],−
same,Growth Index Avg,[17],+++
same,Growth Index Plate 1,[17],+++
same,Growth Index Plate 2,[17],+++
same,Growth Index Plate 3,[17],+++
same,Growth Index Avg,[18],+++
same,Growth Index Plate 1,[18],+++
same,Growth Index Plate 2,[18],+++
same,Growth Index Plate 3,[18],+++
same,Growth Index Avg,[19],+
same,Growth Index Plate 1,[19],+
same,Growth Index Plate 2,[19],+
same,Growth Index Plate 3,[19],+
same,Growth Index Avg,[20],−
same,Growth Index Plate 1,[20],−
same,Growth Index Plate 2,[20],−
same,Growth Index Plate 3,[20],−
same,Growth Index Avg,[21],++
same,Growth Index Plate 1,[21],++
same,Growth Index Plate 2,[21],++
same,Growth Index Plate 3,[21],++
same,Growth Index Avg,[22],−
same,Growth Index Plate 1,[22],−
same,Growth Index Plate 2,[22],−
same,Growth Index Plate 3,[22],−
same,Growth Index Avg,[23],−
same,Growth Index Plate 1,[23],+
same,Growth Index Plate 2,[23],−
same,Growth Index Plate 3,[23],−
same,Growth Index Avg,[24],−
same,Growth Index Plate 1,[24],−
same,Growth Index Plate 2,[24],−
same,Growth Index Plate 3,[24],−
same,Growth Index Avg,[25],++
same,Growth Index Plate 1,[25],++
same,Growth Index Plate 2,[25],++
same,Growth Index Plate 3,[25],+
same,Growth Index Avg,[26],−
same,Growth Index Plate 1,[26],−
same,Growth Index Plate 2,[26],−
same,Growth Index Plate 3,[26],−
same,Growth Index Avg,[27],+++
same,Growth Index Plate 1,[27],+++
same,Growth Index Plate 2,[27],+++
same,Growth Index Plate 3,[27],+++
same,Growth Index Avg,[28],+++
same,Growth Index Plate 1,[28],+++
same,Growth Index Plate 2,[28],+++
same,Growth Index Plate 3,[28],+++
same,Growth Index Avg,[29],+++
same,Growth Index Plate 1,[29],+++
same,Growth Index Plate 2,[29],+++
same,Growth Index Plate 3,[29],+++
same,Growth Index Avg,[30],+++
same,Growth Index Plate 1,[30],+++
same,Growth Index Plate 2,[30],+++
same,Growth Index Plate 3,[30],+++
same,"growth of P. Acnes in combination with 15-OHEPA, compared with 15 OHEPA used alone",in combination with 15-OHEPA,did not reduce the growth
same,"growth of P. Acnes in combination with DGLA, compared with DGLA used alone",in combination with DGLA,did not reduce the growth
